Assay results: ChEMBL document CHEMBL1201862, “PubChem BioAssay data set” (2004)
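The compound was tested at five concentrations on cells cultured in 96-well plates, with a 48-hour exposure period. The concentration for 50% growth inhibition is given as GI50.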 Calls of active or inactive are those of the source. No stated cut-off is given here; in the data, active = GI50 up to about 1.1 µM and inactive = higher.

Key:
Assay in all cases: NCI anticancer screen, dose series, 48 h
[1] = tested on: A498
[2] = tested on: OVCAR-4
[3] = tested on: OVCAR-8
[4] = tested on: LOX IMVI
[5] = tested on: DU-145
[6] = tested on: M14
[7] = tested on: SNB-19
[8] = tested on: UACC-257
[9] = tested on: SR
[10] = tested on: NCI-H226
[11] = tested on: IGROV-1
[12] = tested on: HT-29
[13] = tested on: SN12C
[14] = tested on: SW-620
[15] = tested on: NCI/ADR-RES
[16] = tested on: SNB-75
[17] = tested on: HCT-116
[18] = tested on: CAKI-1
[19] = tested on: HOP-62
[20] = tested on: SF-295
[21] = tested on: UACC-62
[22] = tested on: Malme-3M
[23] = tested on: ACHN
[24] = tested on: MCF7
[25] = tested on: SK-MEL-2
[26] = tested on: SK-OV-3
[27] = tested on: RXF 393
[28] = tested on: K562
[29] = tested on: SK-MEL-28
[30] = tested on: SK-MEL-5
[31] = tested on: SF-539
[32] = tested on: COLO 205
[33] = tested on: PC-3
[34] = tested on: HOP-92
[35] = tested on: HCT-15
[36] = tested on: OVCAR-5
[37] = tested on: NCI-H460
[38] = tested on: Hs-578T
[39] = tested on: HCC 2998
[40] = tested on: 786-0
[41] = tested on: EKVX
[42] = tested on: A549
[43] = tested on: MDA-MB-435
[44] = tested on: RPMI-8226
[45] = tested on: OVCAR-3
[46] = tested on: KM12
[47] = tested on: MDA-N
[48] = tested on: NCI-H23
[49] = tested on: TK-10
[50] = tested on: SF-268
[51] = tested on: NCI-H522
[52] = tested on: T47D
[53] = tested on: U-251
[54] = tested on: HL-60
[55] = tested on: MOLT-4
[56] = tested on: MDA-MB-231
[57] = tested on: CCRF-CEM
[58] = tested on: UO-31

Q: Which GI50 [1] does the source give for COc1ccc2c(c1)CC[C@@H]1C2CC[C@]2(C)C(=C=CP(=O)(O)O)CCC12 (some centres not stated) here?
A: > 100 µM (inactive)

Q: What about the GI50 [2] of the same compound?
A: > 100 µM (inactive)

Q: And the GI50 [3]?
A: > 100 µM (inactive)

Q: And the GI50 [4]?
A: > 100 µM (inactive)

Q: What about the GI50 [5] of the same compound?
A: > 100 µM (inactive)

Q: And the GI50 [6]?
A: > 100 µM (inactive)

Q: What about the GI50 [7] of the same compound?
A: > 100 µM (inactive)

Q: What about the GI50 [8] of the same compound?
A: > 100 µM (inactive)

Q: And the GI50 [9]?
A: 99.5 µM (inactive)

Q: What about the GI50 [10] of the same compound?
A: > 100 µM (inactive)

Q: And the GI50 [11]?
A: > 100 µM (inactive)

Q: And the GI50 [12]?
A: > 100 µM (inactive)

Q: What about the GI50 [13] of the same compound?
A: > 100 µM (inactive)

Q: And the GI50 [14]?
A: > 100 µM (inactive)

Q: And the GI50 [15]?
A: > 100 µM (inactive)

Q: And the GI50 [16]?
A: > 100 µM (inactive)

Q: And the GI50 [17]?
A: > 100 µM (inactive)

Q: And the GI50 [18]?
A: > 100 µM (inactive)

Q: And the GI50 [19]?
A: > 100 µM (inactive)

Q: And the GI50 [20]?
A: > 100 µM (inactive)

Q: What about the GI50 [21] of the same compound?
A: > 100 µM (inactive)

Q: And the GI50 [22]?
A: > 100 µM (inactive)

Q: And the GI50 [23]?
A: > 100 µM (inactive)

Q: What about the GI50 [24] of the same compound?
A: 79.6 µM (inactive)

Q: What about the GI50 [25] of the same compound?
A: > 100 µM (inactive)

Q: What about the GI50 [26] of the same compound?
A: > 100 µM (inactive)

Q: What about the GI50 [27] of the same compound?
A: > 100 µM (inactive)

Q: And the GI50 [28]?
A: > 100 µM (inactive)

Q: And the GI50 [29]?
A: > 100 µM (inactive)

Q: What about the GI50 [30] of the same compound?
A: > 100 µM (inactive)

Q: What about the GI50 [31] of the same compound?
A: > 100 µM (inactive)

Q: What about the GI50 [32] of the same compound?
A: > 100 µM (inactive)

Q: What about the GI50 [33] of the same compound?
A: > 100 µM (inactive)

Q: And the GI50 [34]?
A: > 100 µM (inactive)

Q: What about the GI50 [35] of the same compound?
A: > 100 µM

Q: And the GI50 [36]?
A: > 100 µM (inactive)

Q: And the GI50 [37]?
A: > 100 µM (inactive)

Q: And the GI50 [38]?
A: > 100 µM (inactive)

Q: And the GI50 [39]?
A: > 100 µM (inactive)

Q: And the GI50 [40]?
A: > 100 µM (inactive)

Q: What about the GI50 [41] of the same compound?
A: > 100 µM (inactive)

Q: What about the GI50 [42] of the same compound?
A: > 100 µM (inactive)

Q: And the GI50 [43]?
A: > 100 µM (inactive)

Q: What about the GI50 [44] of the same compound?
A: < 10 nM (active)

Q: What about the GI50 [45] of the same compound?
A: > 100 µM (inactive)

Q: And the GI50 [46]?
A: > 100 µM (inactive)

Q: And the GI50 [47]?
A: > 100 µM (inactive)

Q: And the GI50 [48]?
A: > 100 µM (inactive)

Q: And the GI50 [49]?
A: > 100 µM (inactive)

Q: And the GI50 [50]?
A: > 100 µM (inactive)

Q: What about the GI50 [51] of the same compound?
A: > 100 µM (inactive)

Q: What about the GI50 [52] of the same compound?
A: > 100 µM (inactive)

Q: And the GI50 [53]?
A: > 100 µM (inactive)

Q: Which results are given for CC(=O)OCC12CCC3C4(C)CCCC(C)(C)C4CCC3(C)C1CC(C1=CC(=O)OC1O)O2 (configuration not stated)?
A: GI50 [3]: 1.38 µM (inactive); GI50 [4]: 1.18 µM (inactive); GI50 [5]: 2.07 µM (inactive); GI50 [6]: 1.42 µM (inactive); GI50 [8]: 1.91 µM (inactive); GI50 [9]: 0.244 µM (active); GI50 [11]: 1.54 µM (inactive); GI50 [54]: 513 nM (active); GI50 [12]: 1.3 µM (inactive); GI50 [13]: 1.34 µM (inactive); GI50 [14]: 1.29 µM (inactive); GI50 [16]: 1.76 µM (inactive); GI50 [55]: 0.248 µM (active); GI50 [18]: 1.49 µM (inactive); GI50 [19]: 2.41 µM (inactive); GI50 [20]: 2.34 µM (inactive); GI50 [21]: 1.8 µM (inactive); GI50 [22]: 1.05 µM (active); GI50 [24]: 1.24 µM (inactive); GI50 [56]: 1.75 µM (inactive); GI50 [26]: 2.47 µM (inactive); GI50 [27]: 2.06 µM (inactive); GI50 [28]: 0.776 µM (active); GI50 [29]: 1.53 µM (inactive); GI50 [30]: 1.86 µM (inactive); GI50 [32]: 1.83 µM (inactive); GI50 [33]: 1.31 µM (inactive); GI50 [57]: 303 nM (active); GI50 [35]: 0.92 µM; GI50 [39]: 1.84 µM (inactive); GI50 [40]: 1.09 µM (active); GI50 [41]: 2.43 µM (inactive); GI50 [42]: 2.92 µM (inactive); GI50 [44]: 428 nM (active); GI50 [46]: 1.82 µM (inactive); GI50 [47]: 1.53 µM (inactive); GI50 [48]: 1.69 µM (inactive); GI50 [49]: 1.9 µM (inactive); GI50 [52]: 1.88 µM (inactive)

Q: Which GI50 [1] does the source give for O=C(Cc1ccccc1)NN1C(=O)/C(=C\c2cccc([N+](=O)[O-])c2)S/C1=N\c1ccccc1 here?
A: > 100 µM (inactive)

Q: What about the GI50 [2] of the same compound?
A: > 100 µM (inactive)

Q: What about the GI50 [3] of the same compound?
A: > 100 µM (inactive)

Q: What about the GI50 [5] of the same compound?
A: > 100 µM (inactive)

Q: What about the GI50 [6] of the same compound?
A: > 100 µM (inactive)

Q: And the GI50 [7]?
A: > 100 µM (inactive)

Q: What about the GI50 [8] of the same compound?
A: > 100 µM (inactive)

Q: What about the GI50 [10] of the same compound?
A: > 100 µM (inactive)

Q: What about the GI50 [11] of the same compound?
A: > 100 µM (inactive)

Q: What about the GI50 [12] of the same compound?
A: > 100 µM (inactive)

Q: And the GI50 [13]?
A: > 100 µM (inactive)

Q: And the GI50 [14]?
A: > 100 µM (inactive)

Q: And the GI50 [15]?
A: > 100 µM (inactive)

Q: And the GI50 [16]?
A: > 100 µM (inactive)

Q: What about the GI50 [17] of the same compound?
A: > 100 µM (inactive)

Q: What about the GI50 [55] of the same compound?
A: 42.5 µM (inactive)

Q: What about the GI50 [58] of the same compound?
A: > 100 µM (inactive)

Q: What about the GI50 [19] of the same compound?
A: > 100 µM (inactive)

Q: And the GI50 [20]?
A: > 100 µM (inactive)

Q: And the GI50 [21]?
A: > 100 µM (inactive)

Q: What about the GI50 [23] of the same compound?
A: > 100 µM (inactive)

Q: And the GI50 [24]?
A: 34.7 µM (inactive)

Q: And the GI50 [25]?
A: > 100 µM (inactive)

Q: And the GI50 [56]?
A: > 100 µM (inactive)

Q: What about the GI50 [26] of the same compound?
A: > 100 µM (inactive)

Q: And the GI50 [27]?
A: > 100 µM (inactive)

Q: What about the GI50 [28] of the same compound?
A: > 100 µM (inactive)

Q: And the GI50 [29]?
A: > 100 µM (inactive)

Q: And the GI50 [30]?
A: > 100 µM (inactive)

Q: What about the GI50 [31] of the same compound?
A: > 100 µM (inactive)

Q: And the GI50 [32]?
A: > 100 µM (inactive)

Q: And the GI50 [34]?
A: 44 µM (inactive)

Q: And the GI50 [35]?
A: > 100 µM

Q: And the GI50 [36]?
A: > 100 µM (inactive)

Q: And the GI50 [37]?
A: > 100 µM (inactive)

Q: And the GI50 [38]?
A: > 100 µM (inactive)

Q: What about the GI50 [39] of the same compound?
A: > 100 µM (inactive)

Q: And the GI50 [40]?
A: > 100 µM (inactive)

Q: What about the GI50 [41] of the same compound?
A: > 100 µM (inactive)

Q: And the GI50 [42]?
A: > 100 µM (inactive)

Q: What about the GI50 [43] of the same compound?
A: > 100 µM (inactive)

Q: What about the GI50 [44] of the same compound?
A: > 100000 nM (inactive)

Q: What about the GI50 [45] of the same compound?
A: > 100 µM (inactive)

Q: And the GI50 [46]?
A: > 100 µM (inactive)

Q: What about the GI50 [47] of the same compound?
A: > 100 µM (inactive)

Q: What about the GI50 [48] of the same compound?
A: > 100 µM (inactive)

Q: And the GI50 [49]?
A: > 100 µM (inactive)

Q: What about the GI50 [50] of the same compound?
A: > 100 µM (inactive)

Q: What about the GI50 [52] of the same compound?
A: > 100 µM (inactive)

Q: What about the GI50 [53] of the same compound?
A: > 100 µM (inactive)
